As usually defined, the IC50 is the concentration that inhibits the measured activity by half. One may read the viability, T/C as the result in the treated group divided by that in the control group, in per cent.

Several values for one entry are separate records, joined by “and”; a condition that tells them apart may be missing. Identical values can stand only once.

This assay deals with 958767-090-R-J1-PDC spheroid growth. Kind of assay: Anticancer human tumor 958767-090-R-J1-PDC patient-derived head and neck squamous carcinoma cell line growth inhibition [IpAb]. Conditions: spheroids with HUVEC and MSC; for viability, T/C: stronger effect = lower value. In a few lines:
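Combinations with ipatasertib or abemaciclib were tested on tumour spheroids holding HUVEC (25%) and MSC (15%) alongside 60% malignant cells. Top concentration was at or near clinical Cmax (10 microM if undefined), descending in half-log steps.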

Where [1] appears, read: curve of first compound, second compound 0.1 µM.
The mark [2] stands for this setting: curve of first compound, second compound 0.316 µM.
The mark [3] stands for this setting: curve of first compound, second compound 1 µM.
[4] abbreviates: curve of first compound, second compound 3.16 µM.
[5] abbreviates: curve of first compound, second compound 10 µM.
Where [6] appears, read: second compound 0.1 µM, first compound 0.0316 µM.
Setting [7] is: second compound 0.1 µM, first compound 0.1 µM.
Where [8] appears, read: second compound 0.1 µM, first compound 0.316 µM.
Where [9] appears, read: second compound 0.1 µM, first compound 1 µM.
[10] abbreviates: second compound 0.1 µM, first compound 3.16 µM.
Where [11] appears, read: second compound 0.1 µM, first compound 10 µM.
Setting [12] is: second compound 0.316 µM, first compound 0.0316 µM.
[13] abbreviates: second compound 0.316 µM, first compound 0.1 µM.
Setting [14] is: second compound 0.316 µM, first compound 0.316 µM.
The mark [15] stands for this setting: second compound 0.316 µM, first compound 1 µM.
The mark [16] stands for this setting: second compound 0.316 µM, first compound 3.16 µM.
Setting [17] is: second compound 0.316 µM, first compound 10 µM.
Where [18] appears, read: second compound 1 µM, first compound 0.0316 µM.
Setting [19] is: second compound 1 µM, first compound 0.1 µM.
Where [20] appears, read: second compound 1 µM, first compound 0.316 µM.
The mark [21] stands for this setting: second compound 1 µM, first compound 1 µM.
The mark [22] stands for this setting: second compound 1 µM, first compound 3.16 µM.
[23] abbreviates: second compound 1 µM, first compound 10 µM.
Setting [24] is: second compound 3.16 µM, first compound 0.0316 µM.
[25] abbreviates: second compound 3.16 µM, first compound 0.1 µM.
Where [26] appears, read: second compound 3.16 µM, first compound 0.316 µM.
Setting [27] is: second compound 3.16 µM, first compound 1 µM.
Where [28] appears, read: second compound 3.16 µM, first compound 3.16 µM.
Setting [29] is: second compound 3.16 µM, first compound 10 µM.
Setting [30] is: second compound 10 µM, first compound 0.0316 µM.
Setting [31] is: second compound 10 µM, first compound 0.1 µM.
Where [32] appears, read: second compound 10 µM, first compound 0.316 µM.
Where [33] appears, read: second compound 10 µM, first compound 1 µM.
The mark [34] stands for this setting: second compound 10 µM, first compound 3.16 µM.
The mark [35] stands for this setting: second compound 10 µM, first compound 10 µM.
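Note: spheroids exposed to agents for 7 days.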
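Throughout, for viability, T/C: 100% = DMSO vehicle control wells.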

In the case of `CC1(C)CCC(CN2CCN(c3ccc(C(=O)NS(=O)(=O)c4ccc(NCC5CCOCC5)c([N+](=O)[O-])c4)c(Oc4cnc5[nH]ccc5c4)c3)CC2)=C(c2ccc(Cl)cc2)C1` + CC(C)NCC(C(=O)N1CCN(c2ncnc3c2C(C)CC3O)CC1)c1ccc(Cl)cc1, the IC50 reads like this: under setting [1], 5100 nM; under setting [2], 3390 nM; under setting [3], less than 31.6 nM; under setting [4], less than 31.6 nM; under setting [5], less than 31.6 nM. Besides, the viability, T/C reads like this: under setting [6], 78.3%; under setting [7], 66.5%; under setting [8], 62.5%; under setting [9], 87.9%; under setting [10], 103%; under setting [11], 8.08%. In addition, the viability, T/C under setting [12] was 60.8%; the viability, T/C under setting [13] is 54.9%; the viability, T/C under setting [14] is 44.4%; the viability, T/C under setting [15] was 44.4%; the viability, T/C under setting [16] is 60.4%; the viability, T/C under setting [17] was 4.07%. The viability, T/C runs as follows: under setting [18], 45.1%; under setting [19], 47.5%; under setting [20], 40.8%; under setting [21], 36%; under setting [22], 38.2%; under setting [23], 2.04%. The viability, T/C under setting [24] is 37.2%; the viability, T/C under setting [25] is 35.3%; the viability, T/C under setting [26] was 35.6%; the viability, T/C under setting [27] was 29.3%; the viability, T/C under setting [28] was 37.1%; the viability, T/C under setting [29] was 2.03%. Further, the viability, T/C under setting [30] was 34.3%; the viability, T/C under setting [31] is 27%; the viability, T/C under setting [32] is 24.2%; the viability, T/C under setting [33] was 28.8%; the viability, T/C under setting [34] was 30.7%; the viability, T/C under setting [35] was 0.98%.

`C=CCn1c(=O)c2cnc(Nc3ccc(N4CCN(C)CC4)cc3)nc2n1-c1cccc(C(C)(C)O)n1`: the viability, T/C was 86.2% and 89.5% (compound 0.0316 µM); 72.7% and 72.8% (compound 0.1 µM); 33.4% and 47.7% (compound 0.316 µM); 27.7% and 37.4% (compound 1 µM); 25% and 28.7% (compound 3.16 µM); 21.1% and 20.1% (compound 10 µM). Further, the IC50 (curve of compound) is 195 nM and 344 nM.

With `C=CCn1c(=O)c2cnc(Nc3ccc(N4CCN(C)CC4)cc3)nc2n1-c1cccc(C(C)(C)O)n1` + CC(C)NCC(C(=O)N1CCN(c2ncnc3c2C(C)CC3O)CC1)c1ccc(Cl)cc1, the IC50 is 179 nM under setting [1]; 85 nM under setting [2]; 45.5 nM under setting [3]; 45.9 nM under setting [4]; less than 31.6 nM under setting [5]. Also, the viability, T/C under setting [6] was 88.2%; the viability, T/C under setting [7] is 65%; the viability, T/C under setting [8] is 35%; the viability, T/C under setting [9] is 25%; the viability, T/C under setting [10] is 23.7%; the viability, T/C under setting [11] is 19.6%. In addition, the viability, T/C by setting is: under setting [12], 64.1%; under setting [13], 47.7%; under setting [14], 24.2%; under setting [15], 17%; under setting [16], 17.8%; under setting [17], 15.2%. In addition, the viability, T/C reads like this: under setting [18], 52.1%; under setting [19], 45.4%; under setting [20], 23.5%; under setting [21], 15.6%; under setting [22], 16.9%; under setting [23], 13%. Moreover, the viability, T/C reads like this: under setting [24], 55%; under setting [25], 39.6%; under setting [26], 22.2%; under setting [27], 16.2%; under setting [28], 14.8%; under setting [29], 11.9%. Further, the viability, T/C reads like this: under setting [30], 39.1%; under setting [31], 32.4%; under setting [32], 17.9%; under setting [33], 13.9%; under setting [34], 13.6%; under setting [35], 7.78%.

For the compound `CC1(C)CCC(CN2CCN(c3ccc(C(=O)NS(=O)(=O)c4ccc(NCC5CCOCC5)c([N+](=O)[O-])c4)c(Oc4cnc5[nH]ccc5c4)c3)CC2)=C(c2ccc(Cl)cc2)C1`, the viability, T/C was 79.8% and 92% (compound 0.0316 µM); 86.8% and 104% (compound 0.1 µM); 90.3% and 99% (compound 0.316 µM); 93.9% and 100% (compound 1 µM); 105% and 112% (compound 3.16 µM); 5.27% and 4.22% (compound 10 µM). In addition, where the note is “curve of compound”, the IC50 was 5490 nM and 5830 nM.

Regarding `C=CC(=O)N1CCN(c2nc(=O)n(-c3c(C)ccnc3C(C)C)c3nc(-c4c(O)cccc4F)c(F)cc23)C(C)C1` (stereo not drawn), the viability, T/C by setting is: (compound 0.0316 µM) 99.7% and 95%; (compound 0.1 µM) 93.8% and 88.2%; (compound 0.316 µM) 97.1% and 102%; (compound 1 µM) 94.9% and 107%; (compound 3.16 µM) 83.6% and 75.9%; (compound 10 µM) 39.8%. Also, the IC50 (curve of compound) is 7660 nM and 7220 nM.

For `CC(C)(C)c1cnc(CSc2cnc(NC(=O)C3CCNCC3)s2)o1`, the viability, T/C by setting is: (compound 0.00949 µM) 106% and 118%; (compound 0.03 µM) 97% and 116%; (compound 0.0949 µM) 85.4% and 100%; (compound 0.3 µM) 6.79% and 3.17%; (compound 0.949 µM) 2.83% and 2.21%; (compound 3 µM) 2.61% and 2.81%. The concentration for half-maximal inhibition (IC50) (curve of compound) is 159 nM and 172 nM.
